Patent US20210340130A1, “Compositions and methods for treating attention deficit disorders” (priority 2016, published 2021)
Like-named read-outs stand apart in the source and are kept apart here.

Legend:
[1] = system: hippocampal LTP (hilus of the dentate gyrus); assay: Effect on induction of LTP in rat hippocampus (anesthetized rat, in vivo); parameters: species or system Rat (Long Evans); conditions: for Minimum Effective Dose: IP
[2] = system: Mouse (CD1); assay: Amphetamine-stimulated locomotion in mice; format: in vivo; conditions: for Minimum Effective Dose: IP, dose range 5.6-30 mg/kg; for amphetamine-stimulated locomotion, pre-treatment: amphetamine 2 mg/kg i.p.
Experimental: Effects of exemplary low impact ampakines were also evaluated in mice for the ability to inhibit amphetamine-stimulated locomotor activity. Mice were placed in the locomotor chamber for 20 min to habituate, removed, injected with either vehicle or anti-ADHD ampakine (CX717), and 5 min later injected with 2 mg/kg i.p. Amphetamine. Mice were returned to the locomotor chamber 10 min later, and their activity measured for a further 15 min. In related studies, adult male CD1 mice or male Sprague-Dawley rats were acclimated in a test chamber for 20 minutes removed and dosed i.p. (mice) or orally (rats) with CX1739, vehicle, or a reference compound. Five (mice) or 10 (rats) were then injected with amphetamine (2 mg/kg, i.p.) or saline vehicle and were returned to the activity test chamber.

[3] = system: Rat (Wistar); assay: Novel object recognition memory; format: in vivo; conditions: for Minimum Effective Dose: IP
Experimental: Additional Novel Object Recognition behavioral model studies were conducted to further elucidate the anti-ADHD activities of CX717 and CX1739. Rats were habituated to a test box for two 5 minute sessions on consecutive days. Each test session consisted of two phases: in the first phase (“sample period”), two identical objects (A1 and A2) were placed in the far corners of the box, and the rats were allowed to explore the objects. After a 24 hour delay, rats were re-introduced to the arena (“test period”) now containing a third identical copy of the familiar object (A3) and a new object (B), placed in the same locations as in the first phase, and the total time spent exploring each of the objects was determined over a 3-min duration. For CX717 drug treatment, rats were dosed 30 min prior to each sample session with either 0.1, 0.3, 1.0 mg/kg CX717 (p.o.); vehicle (0.5% methylcellulose, p.o.) or 0.9 mg/kg Aricept (E2020, i.p.). The exploration times for the full 3-min were calculated and expressed as the discrimination index, d1, defined as the absolute difference in time spent exploring the novel object minus the familiar object.
For CX1739 Male Wistar rats were assessed for cognitive ability in a test apparatus comprising an open-field arena placed in a sound-attenuated room under dimmed lighting. Rat exploration and activity were captured by a digital camera, and viewed on a monitor in an adjoining area. Following a 5-minute habituation period, each animal was placed in the test arena in the presence of two identical objects (plastic shapes) and the time spent actively exploring the objects during a 5-minute test period (T1) was recorded. After 24 hours, each rat was again placed in the test arena for 5 minutes (T2) in the presence of one familiar object and one novel object, and the time spent exploring both objects was recorded. The Recognition Index was calculated as the percentage of total exploration time spent exploring the novel object during the retention session (T2), which provides the primary measure of cognitive function in this assay.
The Novel object recognition (NOR) paradigm is a rodent model of recognition learning memory retrieval and takes advantage of the spontaneous behavior of rodents to investigate a novel object compared with a familiar object. NOR has been employed extensively to indicate cognition-enhancing properties of drug candidates, predictive of therapeutic efficacy of positively-assaying drugs for reducing ADHD symptoms in humans.

[4] = system: hippocampal slices (CA1 population spikes)
Experimental: Slice Seizure Assay In these studies extracellular field potentials recording (Population Spikes) in hippocampal slices were used to determine convulsant activity (potential seizure liability). Transverse 300-400 μm hippocampal slices were taken from adult male Sprague-Dawley rats (4-6 week old) and incubated in a submerge slice recording chamber system for 30 to 60 min. The chamber was perfused with oxygenated artificial cerebral spinal fluid (ACSF) comprising (in mM): NaCl 124, KCl 3.0, KH2PO4 1.25, CaCl2.34, MgSO4 2.5, NaHCO3 26 and glucose 10 at room temperature. Population Spike (PS) recordings were made with glass electrodes filled with 2 M NaCl (1-5 megaohm) places in the region of pyramidal cell body of CA1. Electrical stimuli were produced with twisted bipolar nichrome wire electrodes in the Schaffer-commissural fiber afferents. Population spike was induced by activating Schaffer-commissural fiber using single pulse stimulation with delivered at 0.05 Hz. The maximal amplitude of PS was determined by increase stimulating intensity till second spike appears. Then the intensity was decreased to induce a 50% to 60% of maximal response. The amplitude of PS was measured for each response and plotted against time. At same time the amplitude of second PS and/or number of PS was measured and plotted against time. The size of the second PS and numbers of PS were used to estimate the seizure potential or seizure state. With 20 to 50 min stable baseline established testing compound was perfused for 10 to 20 min at each concentration to observe the effect. […] The perfusion then was switched to control ACSF and continued to record until drug effect was washed back to the baseline. CX717 and CX1739 exemplary test ampakine compounds were prepared by dissolving in DMSO and then added to ACSF.
The upper 3 panels of FIG. 5 show amplitudes for PS 1, 2 and 3 m respectively. Lower panel is the measurement of the number of PS.

[5] = system: perforant path / dentate gyrus of the hippocampus (fEPSPs); assay: Effect on evoked fEPSPs in rat hippocampus (anesthetized animals, in vivo); parameters: species or system Rat (Long Evans); conditions: for Minimum Effective Dose: IP, dose range 5-20 mg/kg; for duration of the fEPSP effect: about 2 hours monitoring, CX717 at 20 mg/kg; for effect on evoked fEPSP / maximum increase in fEPSP amplitude: intraperitoneal administration
Experimental: Further selection and characterization of ampakines to identify anti-ADHD drugs useful within the invention involved electrophysiological studies (to measure “electrically evoked field excitatory postsynaptic potentials” (fEPSPs) for test compounds). CX717 and CX1739 were tested for their ability to facilitate synaptic responses in vivo in anesthetized animals following peripheral administration. Stimulating and recording electrodes were inserted into the perforant path and dentate gyrus of the hippocampus, respectively. Electrically evoked field excitatory postsynaptic responses (fEPSPs) were measured before administration of ampakines, and for approximately 2 hours following intraperitoneal administration of ampakines.
Electrically evoked field excitatory postsynaptic potentials (fEPSPs) were determined for the exemplary test ampakines CX717 and CX1739 as described. […] The response magnitude was related to the plasma levels achieved during the study. […] Both ampakines appear to produce a 25% maximum increase in fEPSP amplitude.

Row | SMILES | enhancement of hippocampal LTP relative to baseline ([1]; 2 mg/kg, after the tetanus, P<0.01) | Minimum Effective Dose [1] | Minimum Effective Dose [2] | amphetamine-stimulated locomotion, pre-treatment [2] | d1 scores (discrimination index) ([3]; 0.3 mg/kg, compared to vehicle) | Minimum Effective Dose [3] | seizure activity (population spikes) ([4]; concentrations up to 600 uM) | Minimum Effective Dose [5] | duration of the fEPSP effect [5] | effect on evoked fEPSP [5] | maximum increase in fEPSP amplitude [5] | effect on LTP ([1]; 3 mg/kg, p<0.01) | amphetamine-stimulated locomotion ([2]; 30 mg/kg ip) | preference for novel object exploration versus positive control ([3]; 0.03 mg/kg) | preference for exploring the novel object ([3]; rat, in vivo) | seizure activity (population spikes) ([4]; 100 μM for 20 min and then 200 μM for another 20 min) | amplitude of the first PS ([4]; 100 μM then 200 μM perfusion)
1 | O=C(c1ccc2nonc2c1)N1CCOCC1 [CX717, 1-(benzofurazan-5-ylcarbonyl)morpholine] | 200% | 2 mg/kg | 18 mg/kg | inhibited amphetamine-stimulated locomotion in mice in a dose-dependent manner | significant increase | 0.3 mg/kg | did not display seizure activity | 5 mg/kg | plateaued for the duration of monitoring | long-lasting increase in the evoked fEPSP in a concentration-dependent manner | ~25% |  |  |  |  |  | 
2 | CN(C(=O)c1ccc2nonc2c1)C1CCOCC1 [CX1739, N-Methyl-N-tetrahydro-2H-pyran-4-yl-[2,1,3]-benzoxadiazole-5-carboxamide] |  | 3 mg/kg | 30 mg/kg | inhibited amphetamine-stimulated locomotion in mice in a dose-dependent manner |  | 0.03 mg/kg |  | 5 mg/kg | declined to baseline after two hours | substantial increase in EPSP amplitude | ~25% | statistically significant increase in LTP | significant decrease | comparable to that of 3 mg/kg galantamine | significant increase | no sign of seizure activity | did not change the amplitude of the first PS
